Biological target: T1, Full-length glucokinase (beta cell isoform) (Homo sapiens, UniProt P35557)
T1 construct: Full-length glucokinase (beta cell isoform) was His-tagged at N-terminus; His tag (N); made in house
T1 sequence (P35557 1-465): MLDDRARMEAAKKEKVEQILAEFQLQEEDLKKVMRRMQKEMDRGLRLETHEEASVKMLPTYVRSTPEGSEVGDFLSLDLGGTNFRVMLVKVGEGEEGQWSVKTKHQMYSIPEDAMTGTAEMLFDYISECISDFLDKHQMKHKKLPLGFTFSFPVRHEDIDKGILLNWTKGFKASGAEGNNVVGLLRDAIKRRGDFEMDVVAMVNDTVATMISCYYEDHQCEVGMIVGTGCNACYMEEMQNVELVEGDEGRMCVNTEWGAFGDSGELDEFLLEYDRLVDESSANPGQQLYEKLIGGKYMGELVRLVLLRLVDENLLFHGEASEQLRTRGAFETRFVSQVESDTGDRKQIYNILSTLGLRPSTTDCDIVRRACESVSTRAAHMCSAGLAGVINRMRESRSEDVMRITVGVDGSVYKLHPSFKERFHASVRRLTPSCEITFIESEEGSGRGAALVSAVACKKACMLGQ
Assay: Glucokinase biochemical assay (PK/LDH-coupled, NADH depletion at 340 nm): % activation, EC50, % max activation
Details: 5 mM glucose; for activation at 10 µM: 10 uM compound, % Activation=(Va/Vo−1)×100, read-out: % Activation at 10 uM; for EC50: GK activation, read-out: EC50; for Emax: fitted maximum activation, read-out: % Max Activation
Procedure, shortened: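 N-terminally His-tagged full-length human beta-cell glucokinase, room temperature, 5 mM glucose, 1 mM ATP, PK/LDH-coupled with 0.7 mM NADH, 1% DMSO final. Initial velocity from the 200–900 s slope of A340 decline. % activation = (Va/Vo−1)×100, measured across compound concentrations.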

activation at 10 µM [%]	EC50 [µM]	Emax [%]	SMILES
76.8	0.038	57	Cc1ccc(NC(=O)c2cc(Oc3ccc(C(=O)N(C)C)nc3)c3c(c2)OC(C)(C)C3)nc1 [Example 165, 5-[2,2-Dimethyl-6-(5-methyl-pyridin-2-ylcarbamoyl)-2,3-dihydro-benzofuran-4-yloxy]-pyridine-2-carboxylic acid dimethylamide]
203	0.41	212	CNC(=O)c1ccc(Oc2cc(C(=O)Nc3ccn(C)n3)cc3c2CC(C)(C)O3)cn1 [Example 166, 5-[2,2-Dimethyl-6-(1-methyl-1H-pyrazol-3-ylcarbamoyl)-2,3-dihydro-benzofuran-4-yloxy]-pyridine-2-carboxylic acid methylamide]
148	0.0553	146	Cn1ccc(NC(=O)c2cc(Oc3ccc(C(=O)N4CCC4)nc3)c3c(c2)OC(C)(C)C3)n1 [Example 167, 4-[6-(Azetidine-1-carbonyl)-pyridin-3-yloxy]-2,2-dimethyl-2,3-dihydro-benzofuran-6-carboxylic acid (1-methyl-1H-pyrazol-3-yl)-amide]
172	0.199	184	CCNC(=O)c1ccc(Oc2cc(C(=O)Nc3ccn(C)n3)cc3c2CC(C)(C)O3)cn1 [Example 168, 5-[2,2-Dimethyl-6-(1-methyl-1H-pyrazol-3-ylcarbamoyl)-2,3-dihydro-benzofuran-4-yloxy]-pyridine-2-carboxylic acid ethylamide]
125	0.056	141	Cn1ncc(NC(=O)c2cc(Oc3ccc(C(=O)N4CCC4)nc3)c3c(c2)OC(C)(C)C3)n1 [Example 169, 4-[6-(Azetidine-1-carbonyl)-pyridin-3-yloxy]-2,2-dimethyl-2,3-dihydro-benzofuran-6-carboxylic acid (2-methyl-2H-[1,2,3]triazol-4-yl)-amide]
264	0.3	255	CNC(=O)c1ccc(Oc2cc(C(=O)Nc3cnn(C)n3)cc3c2CC(C)(C)O3)cn1 [Example 170, 5-[2,2-Dimethyl-6-(2-methyl-2H-[1,2,3]triazol-4-ylcarbamoyl)-2,3-dihydro-benzofuran-4-yloxy]-pyridine-2-carboxylic acid methylamide]
171	3.6	213	CNC(=O)c1ncc(Oc2cc(C(=O)Nc3ccn(C)n3)cc3c2CC(C)(C)O3)cn1 [Example 171, 5-[2,2-Dimethyl-6-(1-methyl-1H-pyrazol-3-ylcarbamoyl)-2,3-dihydro-benzofuran-4-yloxy]-pyrimidine-2-carboxylic acid methylamide]
186	0.48	169	Cn1ccc(NC(=O)c2cc(Oc3cnc(C(=O)N4CCC4)nc3)c3c(c2)OC(C)(C)C3)n1 [Example 172, 4-[2-(Azetidine-1-carbonyl)-pyrimidin-5-yloxy]-2,2-dimethyl-2,3-dihydro-benzofuran-6-carboxylic acid (1-methyl-1H-pyrazol-3-yl)-amide]
159	0.068	148	Cn1ccc(NC(=O)c2cc(Oc3cnc(C(=O)N4CCC4)c(F)c3)c3c(c2)OC(C)(C)C3)n1 [Example 173, 4-[6-(Azetidine-1-carbonyl)-5-fluoro-pyridin-3-yloxy]-2,2-dimethyl-2,3-dihydro-benzofuran-6-carboxylic acid (1-methyl-1H-pyrazol-3-yl)-amide]
238	0.84	258	CCNC(=O)c1ccc(Oc2cc(C(=O)Nc3cnn(C)n3)cc3c2CC(C)(C)O3)cn1 [Example 174, 5-[2,2-Dimethyl-6-(2-methyl-2H-[1,2,3]triazol-4-ylcarbamoyl)-2,3-dihydro-benzofuran-4-yloxy]-pyridine-2-carboxylic acid ethylamide]
233	0.77	251	CCNC(=O)c1ncc(Oc2cc(C(=O)Nc3ccn(C)n3)cc3c2CC(C)(C)O3)cc1NCC [Example 175, 5-[2,2-Dimethyl-6-(1-methyl-1H-pyrazol-3-ylcarbamoyl)-2,3-dihydro-benzofuran-4-yloxy]-3-ethylamino-pyridine-2-carboxylic acid ethylamide]
194	0.45	203	CNC(=O)c1ncc(Oc2cc(C(=O)Nc3ccn(C)n3)cc3c2CC(C)(C)O3)cc1F [Example 176, 5-[2,2-Dimethyl-6-(1-methyl-1H-pyrazol-3-ylcarbamoyl)-2,3-dihydro-benzofuran-4-yloxy]-3-fluoro-pyridine-2-carboxylic acid methylamide]
204	0.35	189	CCNC(=O)c1ncc(Oc2cc(C(=O)Nc3ccn(C)n3)cc3c2CC(C)(C)O3)cc1F [Example 177, 5-[2,2-Dimethyl-6-(1-methyl-1H-pyrazol-3-ylcarbamoyl)-2,3-dihydro-benzofuran-4-yloxy]-3-fluoro-pyridine-2-carboxylic acid ethylamide]
198	0.09	147	CN(C)C(=O)c1ncc(Oc2cc(C(=O)Nc3ccn(C)n3)cc3c2CC(C)(C)O3)cc1F [Example 178, 5-[2,2-Dimethyl-6-(1-methyl-1H-pyrazol-3-ylcarbamoyl)-2,3-dihydro-benzofuran-4-yloxy]-3-fluoro-pyridine-2-carboxylic acid dimethylamide]
66.5	> 10	–	Cn1ccc(NC(=O)c2cc(Oc3ccc(C(=O)O)nc3)c3c(c2)OC(C)(C)C3)n1 [Example 180, 5-[2,2-Dimethyl-6-(1-methyl-1H-pyrazol-3-ylcarbamoyl)-2,3-dihydro-benzofuran-4-yloxy]-pyridine-2-carboxylic acid]
171	1.1	182	Cn1ccc(NC(=O)c2cc(Oc3ccc(C#N)nc3)c3c(c2)OC(C)(C)C3)n1 [Example 181, 4-(6-Cyano-pyridin-3-yloxy)-2,2-dimethyl-2,3-dihydro-benzofuran-6-carboxylic acid (1-methyl-1H-pyrazol-3-yl)-amide]
244	0.29	237	Cn1ccc(NC(=O)c2cc(Oc3ccc(-c4ncon4)nc3)c3c(c2)OC(C)(C)C3)n1 [Example 182, 2,2-Dimethyl-4-(6-[1,2,4]oxadiazol-3-yl-pyridin-3-yloxy)-2,3-dihydro-benzofuran-6-carboxylic acid (1-methyl-1H-pyrazol-3-yl)-amide]
237	1.9	236	Cn1ccc(NC(=O)c2cc(Oc3ccc(C#N)c(F)c3)c3c(c2)OC(C)(C)C3)n1 [Example 183, 4-(4-Cyano-3-fluoro-phenoxy)-2,2-dimethyl-2,3-dihydro-benzofuran-6-carboxylic acid (1-methyl-1H-pyrazol-3-yl)-amide]
250	3.2	251	Cn1ncc(NC(=O)c2cc(Oc3ccc(C#N)c(F)c3)c3c(c2)OC(C)(C)C3)n1 [Example 184, 4-(4-Cyano-3-fluoro-phenoxy)-2,2-dimethyl-2,3-dihydro-benzofuran-6-carboxylic acid (2-methyl-2H-[1,2,3]triazol-4-yl)-amide]

— patent US8119624B2, “Fused phenyl amido heterocyclic compounds” (Pfizer Inc., priority 2006, dated 2012)
